Source: patent US20190076436A1, “MACROCYCLIC COMPOUNDS AS ROS1 KINASE INHIBITORS” (Array BioPharma Inc., priority 2017, published 2019)

How the values were obtained:
Format in all cases: biochemical
D2033N ROS1 = D2033N ROS1 (Homo sapiens, UniProt P08922, D2033N); experiment: Inhibition of D2033N ROS1 kinase, CisBio HTRF KinEASE-TK assay
Protocol: (§1) The potency of a compound inhibiting wild type and exemplary mutant ROS1 kinases was determined using CisBio's HTRF Kinease-TK assay technology. […] No. […] No. […] Each kinase is incubated with 250 nM TK-substrate biotin (CisBio, Cat. No. 62TKOPEC) and 1 mM ATP along with test compound in a buffer consisting of 25 mM MOPS [pH 7.4], 5 mM MgCl2, 0.005% Triton X-100, and 2% DMSO in a volume of 8 μL. […] After a 1 hour incubation at 22° C., the extent of reaction was determined using a PerkinElmer EnVision multimode plate reader via HTRF dual wavelength detection, and the percent of control (POC) was calculated using a ratiometric emission factor. 100 POC is determined using no test compound and 0 POC is determined in the absence of enzyme.

L2026M ROS1 = L2026M ROS1 (Homo sapiens, UniProt P08922, L2026M); experiment: Inhibition of L2026M ROS1 kinase, CisBio HTRF KinEASE-TK assay
Chain of L2026M ROS1 (P08922 28-2347 L2026M): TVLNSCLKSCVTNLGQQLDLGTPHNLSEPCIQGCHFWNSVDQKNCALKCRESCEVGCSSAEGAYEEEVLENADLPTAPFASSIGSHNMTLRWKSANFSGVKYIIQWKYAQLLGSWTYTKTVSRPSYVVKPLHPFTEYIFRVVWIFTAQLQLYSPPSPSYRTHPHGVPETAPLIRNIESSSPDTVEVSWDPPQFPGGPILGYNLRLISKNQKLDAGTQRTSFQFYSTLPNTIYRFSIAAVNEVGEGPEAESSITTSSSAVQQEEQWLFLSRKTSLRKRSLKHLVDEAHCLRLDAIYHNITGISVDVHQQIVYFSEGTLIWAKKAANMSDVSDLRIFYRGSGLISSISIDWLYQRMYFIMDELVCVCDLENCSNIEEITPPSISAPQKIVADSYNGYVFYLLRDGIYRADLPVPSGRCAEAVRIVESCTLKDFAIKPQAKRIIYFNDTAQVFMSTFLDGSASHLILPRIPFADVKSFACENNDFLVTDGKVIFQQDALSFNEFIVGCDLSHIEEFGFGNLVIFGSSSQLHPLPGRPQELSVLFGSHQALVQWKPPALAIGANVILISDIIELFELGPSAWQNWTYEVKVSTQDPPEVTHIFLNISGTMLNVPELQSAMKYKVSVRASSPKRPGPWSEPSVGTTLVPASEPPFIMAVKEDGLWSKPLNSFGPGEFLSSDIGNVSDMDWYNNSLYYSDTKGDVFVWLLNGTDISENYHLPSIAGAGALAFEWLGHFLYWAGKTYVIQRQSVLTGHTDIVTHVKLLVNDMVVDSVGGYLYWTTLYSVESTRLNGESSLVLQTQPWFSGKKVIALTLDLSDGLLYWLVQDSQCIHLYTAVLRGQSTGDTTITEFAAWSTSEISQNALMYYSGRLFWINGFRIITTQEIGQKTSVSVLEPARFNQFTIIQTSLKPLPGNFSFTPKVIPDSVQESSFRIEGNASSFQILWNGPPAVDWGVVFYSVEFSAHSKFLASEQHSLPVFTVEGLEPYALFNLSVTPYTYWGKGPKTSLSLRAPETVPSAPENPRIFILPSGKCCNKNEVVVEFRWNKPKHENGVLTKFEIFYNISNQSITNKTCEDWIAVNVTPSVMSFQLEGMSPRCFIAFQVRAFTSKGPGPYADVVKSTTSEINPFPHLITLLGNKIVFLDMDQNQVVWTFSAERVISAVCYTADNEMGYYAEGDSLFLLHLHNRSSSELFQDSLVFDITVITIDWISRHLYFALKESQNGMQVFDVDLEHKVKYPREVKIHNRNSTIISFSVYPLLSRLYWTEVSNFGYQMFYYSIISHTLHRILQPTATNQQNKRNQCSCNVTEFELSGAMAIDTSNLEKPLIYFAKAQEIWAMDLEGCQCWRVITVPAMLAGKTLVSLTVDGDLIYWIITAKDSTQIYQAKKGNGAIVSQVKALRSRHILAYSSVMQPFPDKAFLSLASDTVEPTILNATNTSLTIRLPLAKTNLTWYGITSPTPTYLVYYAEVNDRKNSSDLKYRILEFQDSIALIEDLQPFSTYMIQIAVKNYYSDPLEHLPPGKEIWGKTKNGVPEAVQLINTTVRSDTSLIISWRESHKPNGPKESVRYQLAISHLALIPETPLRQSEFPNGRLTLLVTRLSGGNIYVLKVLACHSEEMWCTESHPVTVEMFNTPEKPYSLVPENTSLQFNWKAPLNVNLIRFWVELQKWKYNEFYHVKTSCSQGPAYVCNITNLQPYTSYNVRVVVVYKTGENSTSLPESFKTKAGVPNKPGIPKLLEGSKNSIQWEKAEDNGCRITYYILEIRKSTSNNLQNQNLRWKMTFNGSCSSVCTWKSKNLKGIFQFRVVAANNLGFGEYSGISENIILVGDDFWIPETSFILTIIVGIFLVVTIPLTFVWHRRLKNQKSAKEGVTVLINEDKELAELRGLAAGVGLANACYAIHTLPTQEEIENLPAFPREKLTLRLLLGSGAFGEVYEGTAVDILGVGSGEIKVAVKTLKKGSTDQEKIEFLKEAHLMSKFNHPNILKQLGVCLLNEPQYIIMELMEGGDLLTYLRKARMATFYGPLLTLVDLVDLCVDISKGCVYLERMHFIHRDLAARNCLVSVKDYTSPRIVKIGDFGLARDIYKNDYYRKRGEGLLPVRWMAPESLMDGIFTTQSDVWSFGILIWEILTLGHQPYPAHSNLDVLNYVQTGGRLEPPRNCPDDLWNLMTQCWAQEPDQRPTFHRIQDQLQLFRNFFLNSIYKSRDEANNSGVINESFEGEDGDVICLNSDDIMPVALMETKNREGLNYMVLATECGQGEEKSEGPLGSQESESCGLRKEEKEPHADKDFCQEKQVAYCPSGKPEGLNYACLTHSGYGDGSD
Protocol: as §1

G2032R ROS1 = G2032R ROS1 (Homo sapiens, UniProt P08922, G2032R); experiment: Inhibition of G2032R ROS1 kinase, CisBio HTRF KinEASE-TK assay
Chain of G2032R ROS1 (P08922 1883-2347 G2032R limits assumed): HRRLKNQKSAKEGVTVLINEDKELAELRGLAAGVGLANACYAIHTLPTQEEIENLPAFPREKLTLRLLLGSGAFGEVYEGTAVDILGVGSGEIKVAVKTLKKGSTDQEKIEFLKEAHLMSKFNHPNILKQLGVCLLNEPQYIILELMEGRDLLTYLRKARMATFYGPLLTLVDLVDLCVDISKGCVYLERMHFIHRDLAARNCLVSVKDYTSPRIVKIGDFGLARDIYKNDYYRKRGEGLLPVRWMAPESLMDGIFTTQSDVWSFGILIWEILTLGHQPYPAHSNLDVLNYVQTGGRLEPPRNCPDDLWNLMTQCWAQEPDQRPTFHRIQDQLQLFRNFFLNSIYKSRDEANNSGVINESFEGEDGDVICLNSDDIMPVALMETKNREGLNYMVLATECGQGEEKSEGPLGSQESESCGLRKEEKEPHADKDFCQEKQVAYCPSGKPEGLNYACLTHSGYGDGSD
Protocol: as §1

wild type ROS1 = wild type ROS1 (Homo sapiens, UniProt P08922); experiment: Inhibition of wild type ROS1 kinase, CisBio HTRF KinEASE-TK assay; conditions: read-out: ROS1 wT IC50
Chain of wild type ROS1 (P08922 1883-2347 limits assumed): as the sequence (P08922 1883-2347 G2032R limits assumed) above, with R150G counted along it
Protocol: as §1

Chain of D2033N ROS1 (P08922 28-2347 D2033N): as the sequence (P08922 28-2347 L2026M) above, with M1999L, D2006N counted along it

| Compound | IC50 (D2033N ROS1) [nM] | IC50 (L2026M ROS1) [nM] | IC50 (G2032R ROS1) [nM] | IC50 (wild type ROS1) [nM] |
| --- | --- | --- | --- | --- |
| O=C1NC[C@@H](O)COc2ncc(F)cc2[C@H]2CCCN2c2ccn3ncc1c3n2 [Compound 7, (6R,15R)-9-fluoro-15-hydroxy-13-oxa-2,11,17,21,22,25-hexaazapentacyclo-[17.5.2.0^2,6.0^7,12.0^22,26]hexacosa-1(25),7,9,11,19(26),20,23-heptaen-18-one] | 0.6 | 2.9 | 29.2 | 3.1 |
| O=C1NCCCOc2cccc(n2)[C@H]2CCCN2c2ccn3ncc1c3n2 [Compound 2, (6R)-12-oxa-2,16,20,21,24,26-hexaazapentacyclo[16.5.2.1^7,11.0^2,6.0^21,25] hexacosa-1(24),7(26),8,10,18(25),19,22-heptaen-17-one] | 11.9 | 67 | 1060 | 80.3 |
| O=C1NCCCOc2ncc(F)cc2[C@H]2CCCN2c2ccn3ncc1c3n2 [Compound 3, (6R)-9-fluoro-13-oxa-2,11,17,21,22,25-hexaazapentacyclo[17.5.2.0^2,6.0^7,12.0^22,26] hexacosa-1(25),7,9,11,19(26),20,23-heptaen-18-one] | 0.3 | 1.2 | 9.4 | 1.2 |
| O=C1OCCOc2ncc(F)cc2[C@H]2CCCN2c2ccn3ncc1c3n2 [Compound 14] | 7.6 | 30.3 | 107 | 28.9 |
| O=C1NCCOc2ncc(F)cc2[C@H]2CCCN2c2ccn3ncc1c3n2 [Compound 9, (6R)-9-fluoro-13-oxa-2,11,16,20,21,24-hexaazapentacyclo[16.5.2.0^2,6.0^7,12.0^21,25] pentacosa-1(24),7,9,11,18(25),19,22-heptaen-17-one] | 1.7 | 10.2 | 98.6 | 9.2 |

Results, then the molecule that gave them:

| IC50 (D2033N ROS1) [nM] | IC50 (L2026M ROS1) [nM] | IC50 (G2032R ROS1) [nM] | IC50 (wild type ROS1) [nM] | Compound |
| --- | --- | --- | --- | --- |
| 397 | 713 | 3980 | 331 | CC(=O)N1CCOc2ccc(F)cc2[C@H]2CCCN2c2ccn3ncc(c3n2)C1 [Compound 22, 1-[(6R)-9-fluoro-13-oxa-2,16,20,21,24-pentaazapentacyclo[16.5.2.0^2,6.0^7,12.0^21,25]pentacosa-1(24),7,9,11,18(25),19,22-heptaen-16-yl]ethan-1-one] |
| 16.8 | 4.6 | 114 | 6.1 | O=C1NC[C@H](O)COc2ccc(F)cc2C2CC(F)(F)CN2c2ccn3ncc1c3n2 (single isomer, unassigned) [Compound 45] |
| 260 | 589 | 4930 | 779 | C[C@H]1CNC(=O)c2cnn3ccc(nc23)N2CCC[C@@H]2c2cc(F)cn(c2=O)C1 [Compound 35, (6R,13S)-9-fluoro-13-methyl-2,11,15,19,20,23-hexaazapentacyclo [15.5.2.1^7,11.0^2,6.0^20,24]pentacosa-1(23),7,9,17(24),18,21-hexaene-16,25-dione] |
| 2.8 | 2.2 | 21.6 | 2.5 | O=C1NCCCOc2ccc(F)cc2[C@H]2CCCN2c2ccn3ncc1c3n2 [Compound 20, (6R)-9-fluoro-13-oxa-2,17,21,22,25-pentaazapentacyclo[17.5.2.0^2,6.0^7,12.0^22,26] hexacosa-1(25),7,9,11,19(26),20,23-heptaen-18-one] |
| 1.2 | 2.4 | 14.4 | 2.4 | O=C1NCC(F)(F)COc2ncc(F)cc2[C@H]2CCCN2c2ccn3ncc1c3n2 [Compound 19, (6R)-9,15,15-trifluoro-13-oxa-2,11,17,21,22,25-hexaazapentacyclo[17.5.2.0^2,6.0^7,12.0^22,26] hexacosa-1(25),7,9,11,19(26),20,23-heptaen-18-one] |
